According to the CheMixHub viscosity set:
± gives the uncertainty stated by the source.

Assay: xn = mol fraction of the nth substance listed

C=CC(=O)OCCCC + CCCCC(C)O
viscosity [mPa·s], 101 kPa
Details | 298.15 K | 308.15 K
x1 = 0.05546 | 3.742 ± 0.03 | 2.694 ± 0.026
x1 = 0.0999 | 3.477 ± 0.027 | 2.526 ± 0.024
x1 = 0.1555 | 3.172 ± 0.025 | 2.33 ± 0.022
x1 = 0.1999 | 2.948 ± 0.023 | 2.185 ± 0.02
x1 = 0.2554 | 2.69 ± 0.021 | 2.015 ± 0.018
x1 = 0.3 | 2.499 ± 0.019 | 1.889 ± 0.017
x1 = 0.3555 | 2.28 ± 0.018 | 1.743 ± 0.016
x1 = 0.4 | 2.119 ± 0.016 | 1.634 ± 0.015
x1 = 0.4553 | 1.934 ± 0.015 | 1.508 ± 0.013
x1 = 0.5 | 1.796 ± 0.014 | 1.413 ± 0.013
x1 = 0.5556 | 1.639 ± 0.013 | 1.304 ± 0.012
x1 = 0.5998 | 1.523 ± 0.012 | 1.222 ± 0.011
x1 = 0.6554 | 1.39 ± 0.011 | 1.128 ± 0.01
x1 = 0.6998 | 1.291 ± 0.011 | 1.057 ± 0.01
x1 = 0.7554 | 1.178 ± 0.01 | 0.957 ± 0.009
x1 = 0.8 | 1.095 ± 0.01 | 0.914 ± 0.009
x1 = 0.8554 | 0.999 ± 0.009 | 0.844 ± 0.009
x1 = 0.9 | 0.928 ± 0.009 | 0.791 ± 0.008
x1 = 0.9555 | 0.847 ± 0.008 | 0.729 ± 0.008

CC(C)CO + O
Details | viscosity [mPa·s]
293.15 K, 101.33 kPa, x1 = 0.0049 | 1.124 ± 0.011
293.15 K, 101.33 kPa, x1 = 0.01 | 1.222 ± 0.012
293.15 K, 101.33 kPa, x1 = 0.015 | 1.332 ± 0.013
293.15 K, 101.33 kPa, x1 = 0.021 | 1.453 ± 0.015
298 K, 101 kPa, x2 = 0.2 | 3.148 ± 0.019
298 K, 101 kPa, x2 = 0.4 | 3.209 ± 0.019
299 K, 101 kPa, x2 = 0.1 | 3.13 ± 0.019
299 K, 101 kPa, x2 = 0.45 | 3.156 ± 0.019
300 K, 101 kPa, x2 = 0.3 | 2.95 ± 0.018
303 K, 101 kPa, x1 = 0.01 | 0.931 ± 0.0059
303 K, 101 kPa, x2 = 0.1 | 2.753 ± 0.017
303 K, 101 kPa, x2 = 0.2 | 2.679 ± 0.017
303 K, 101 kPa, x2 = 0.3 | 2.676 ± 0.016
303 K, 101 kPa, x2 = 0.4 | 2.719 ± 0.016
303 K, 101 kPa, x2 = 0.45 | 2.761 ± 0.017
303.15 K, 101.33 kPa, x1 = 0.0049 | 0.899 ± 0.009
303.15 K, 101.33 kPa, x1 = 0.01 | 0.967 ± 0.0097
303.15 K, 101.33 kPa, x1 = 0.015 | 1.04 ± 0.01
303.15 K, 101.33 kPa, x1 = 0.021 | 1.119 ± 0.011
313 K, 101 kPa, x1 = 0.01 | 0.7483 ± 0.0049
313 K, 101 kPa, x2 = 0.1 | 2.041 ± 0.013
313 K, 101 kPa, x2 = 0.2 | 1.985 ± 0.012
313 K, 101 kPa, x2 = 0.3 | 1.976 ± 0.012
313 K, 101 kPa, x2 = 0.4 | 2.002 ± 0.012
313 K, 101 kPa, x2 = 0.45 | 2.025 ± 0.012
313.15 K, 101.33 kPa, x1 = 0.0049 | 0.721 ± 0.0072
313.15 K, 101.33 kPa, x1 = 0.01 | 0.767 ± 0.0077
313.15 K, 101.33 kPa, x1 = 0.015 | 0.815 ± 0.0081
323 K, 101 kPa, x1 = 0.01 | 0.6161 ± 0.0042
323 K, 101 kPa, x2 = 0.1 | 1.55 ± 0.01
323 K, 101 kPa, x2 = 0.2 | 1.51 ± 0.0096
323 K, 101 kPa, x2 = 0.3 | 1.502 ± 0.0095
323 K, 101 kPa, x2 = 0.4 | 1.517 ± 0.0095
323 K, 101 kPa, x2 = 0.45 | 1.531 ± 0.0096
323.15 K, 101.33 kPa, x1 = 0.0049 | 0.604 ± 0.006
323.15 K, 101.33 kPa, x1 = 0.01 | 0.642 ± 0.0064
323.15 K, 101.33 kPa, x1 = 0.015 | 0.675 ± 0.0067

C=CC(=O)OC + CCCCCCO
viscosity [mPa·s], 101.33 kPa
Details | 308.15 K | 318.15 K
x1 = 0.0466 | 2.892 ± 0.016 | 2.186 ± 0.013
x1 = 0.149 | 2.128 ± 0.013 | 1.687 ± 0.01
x1 = 0.2479 | 1.616 ± 0.01 | 1.331 ± 0.008
x1 = 0.3487 | 1.247 ± 0.008 | 1.059 ± 0.007
x1 = 0.4466 | 0.989 ± 0.007 | 0.859 ± 0.006
x1 = 0.4989 | 0.881 ± 0.006 | 0.772 ± 0.006
x1 = 0.5479 | 0.795 ± 0.006 | 0.701 ± 0.005
x1 = 0.6418 | 0.662 ± 0.005 | 0.588 ± 0.005
x1 = 0.7501 | 0.549 ± 0.004 | 0.486 ± 0.004
x1 = 0.8501 | 0.472 ± 0.004 | 0.414 ± 0.004
x1 = 0.9438 | 0.417 ± 0.004 | 0.36 ± 0.003

Cc1ccccc1O + CC(=O)c1ccccc1
303.15 K, 101 kPa
Details | viscosity [mPa·s]
x2 = 0.11 | 5.369 ± 0.13
x2 = 0.2168 | 4.793 ± 0.11
x2 = 0.3155 | 4.305 ± 0.086
x2 = 0.4164 | 3.832 ± 0.069
x2 = 0.4556 | 3.653 ± 0.064
x2 = 0.5575 | 3.206 ± 0.05
x2 = 0.6919 | 2.635 ± 0.035
x2 = 0.7608 | 2.358 ± 0.029
x2 = 0.9488 | 1.668 ± 0.016

CCCCCOC(C)=O + Cc1ccc(O)cc1
Details | viscosity [mPa·s]
298.15 K, 101 kPa, x2 = 0.5 | 1.169 ± 0.011

CC1CCCO1 (configuration not stated) + O=C1CCCC1
298.15 K, 101 kPa
Details | viscosity [mPa·s]
x1 = 0.0212 | 1.103 ± 0.0079
x1 = 0.0637 | 1.061 ± 0.0077
x1 = 0.1277 | 1.001 ± 0.0075
x1 = 0.1917 | 0.944 ± 0.0073
x1 = 0.2563 | 0.89 ± 0.0071
x1 = 0.3212 | 0.84 ± 0.0069
x1 = 0.3856 | 0.792 ± 0.0067
x1 = 0.4507 | 0.747 ± 0.0065
x1 = 0.5157 | 0.705 ± 0.0064
x1 = 0.5812 | 0.665 ± 0.0062
x1 = 0.6466 | 0.628 ± 0.0061
x1 = 0.7069 | 0.596 ± 0.006
x1 = 0.7785 | 0.56 ± 0.0059
x1 = 0.8445 | 0.529 ± 0.0058
x1 = 0.9107 | 0.5 ± 0.0056
x1 = 0.9775 | 0.472 ± 0.0055

C=CC(=O)OC + CCCCCCCCCCCCC
viscosity [mPa·s], 100 kPa
Details | x1 = 0.1018 | x1 = 0.1995 | x1 = 0.3067 | x1 = 0.4044 | x1 = 0.5002 | x1 = 0.6038 | x1 = 0.7058 | x1 = 0.8043 | x1 = 0.9012
303.15 K | 1.375 ± 0.14 | 1.235 ± 0.12 | 1.091 ± 0.11 | 0.974 ± 0.098 | 0.868 ± 0.087 | 0.765 ± 0.077 | 0.673 ± 0.067 | 0.593 ± 0.059 | 0.513 ± 0.051
308.15 K | 1.178 ± 0.12 | 1.058 ± 0.11 | 0.936 ± 0.094 | 0.838 ± 0.084 | 0.752 ± 0.075 | 0.669 ± 0.067 | 0.598 ± 0.06 | 0.538 ± 0.054 | 0.477 ± 0.048
313.15 K | 1.056 ± 0.11 | 0.953 ± 0.095 | 0.845 ± 0.085 | 0.762 ± 0.076 | 0.689 ± 0.069 | 0.618 ± 0.062 | 0.554 ± 0.056 | 0.498 ± 0.05 | 0.446 ± 0.045

CCOC(=O)CC + CO
303.15 K, 101.33 kPa
Details | viscosity [mPa·s]
x1 = 0.1102 | 0.524 ± 0.005
x1 = 0.1551 | 0.525 ± 0.005
x1 = 0.2735 | 0.526 ± 0.005
x1 = 0.3189 | 0.527 ± 0.005
x1 = 0.3721 | 0.528 ± 0.005
x1 = 0.4967 | 0.527 ± 0.005
x1 = 0.5395 | 0.524 ± 0.005
x1 = 0.613 | 0.521 ± 0.005
x1 = 0.6625 | 0.518 ± 0.005
x1 = 0.7231 | 0.514 ± 0.005
x1 = 0.8087 | 0.508 ± 0.005
x1 = 0.9141 | 0.501 ± 0.005

C=CC(=O)OC + c1ccccc1
viscosity [mPa·s], 101 kPa
Details | x2 = 0.105 | x2 = 0.2191 | x2 = 0.3452 | x2 = 0.4069 | x2 = 0.5314 | x2 = 0.6457 | x2 = 0.714 | x2 = 0.7852 | x2 = 0.8977
298.15 K | 0.472 ± 0.008 | 0.485 ± 0.008 | 0.501 ± 0.008 | 0.509 ± 0.008 | 0.526 ± 0.008 | 0.543 ± 0.008 | 0.554 ± 0.008 | 0.565 ± 0.009 | 0.585 ± 0.009
303.15 K | 0.433 ± 0.007 | 0.447 ± 0.007 | 0.462 ± 0.008 | 0.47 ± 0.008 | 0.488 ± 0.008 | 0.505 ± 0.008 | 0.515 ± 0.008 | 0.526 ± 0.008 | 0.545 ± 0.008
308.15 K | 0.398 ± 0.007 | 0.412 ± 0.007 | 0.428 ± 0.007 | 0.436 ± 0.007 | 0.453 ± 0.007 | 0.47 ± 0.008 | 0.481 ± 0.008 | 0.492 ± 0.008 | 0.51 ± 0.008
313.15 K | 0.369 ± 0.007 | 0.382 ± 0.007 | 0.392 ± 0.007 | 0.403 ± 0.007 | 0.418 ± 0.007 | 0.433 ± 0.007 | 0.442 ± 0.007 | 0.452 ± 0.007 | 0.467 ± 0.008

C=CC(=O)OC + CCCCO
viscosity [mPa·s], 101.33 kPa
Details | 308.15 K | 318.15 K
x1 = 0.0466 | 1.721 ± 0.01 | 1.393 ± 0.009
x1 = 0.1448 | 1.322 ± 0.008 | 1.115 ± 0.007
x1 = 0.2429 | 1.042 ± 0.007 | 0.908 ± 0.006
x1 = 0.3387 | 0.847 ± 0.006 | 0.755 ± 0.005
x1 = 0.4481 | 0.688 ± 0.005 | 0.625 ± 0.005
x1 = 0.5003 | 0.63 ± 0.005 | 0.575 ± 0.004
x1 = 0.5436 | 0.589 ± 0.005 | 0.539 ± 0.004
x1 = 0.6469 | 0.512 ± 0.004 | 0.468 ± 0.004
x1 = 0.7461 | 0.459 ± 0.004 | 0.416 ± 0.004
x1 = 0.8469 | 0.422 ± 0.004 | 0.375 ± 0.003
x1 = 0.9456 | 0.399 ± 0.004 | 0.346 ± 0.003

CCCCCOC(C)=O + CCCCOC(C)=O
298.15 K, 101.33 kPa
Details | viscosity [mPa·s]
x2 = 0.1116 | 0.834 ± 0.007
x2 = 0.2559 | 0.81 ± 0.007
x2 = 0.3941 | 0.787 ± 0.006
x2 = 0.5285 | 0.76 ± 0.006
x2 = 0.6578 | 0.738 ± 0.006
x2 = 0.7859 | 0.715 ± 0.006
x2 = 0.9088 | 0.694 ± 0.006
